Among the test systems are LOX IMVI melanoma; HCT-15 colon; PC-3 prostate; NCI-H23 lung; HS 578T breast; HT29 colon; SN12C renal; OVCAR-8 ovarian; TK-10 renal; M14 melanoma; UO-31 renal; SK-MEL-2 melanoma; MDA-N; RPMI-8226 leukemia; UACC-62 melanoma; BT-549 breast; SR leukemia.
What all share (assay): inhibition of tumour cell growth, NCI panel, 48 h

Several values for one entry are separate records, joined by “and”; a condition that tells them apart may be missing. Equal entries are not always repeated.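 In this assay, cells in 96-well plates receive the compound at five concentrations for 48 hours. Endpoints are linearly interpolated between the surrounding concentrations. GI50 is the concentration that inhibits growth by half. TGI is the concentration that stops growth completely.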

As to `CN(C)CCCNC(=O)CNC(=O)c1cc(NC(=O)c2cc(NC(=O)c3cc(NC(=O)CCNC(=O)c4cc(NC(=O)c5cc(NC(=O)c6nccn6C)cn5C)cn4C)cn3C)cn2C)cn1C`, the TGI with LOX IMVI melanoma, in the assay on HCT-15 colon, in the assay with PC-3 prostate, with NCI-H23 lung, in the assay on HS 578T breast and with HT29 colon was more than 100 µM throughout. For the same compound, the TGI with SN12C renal, with OVCAR-8 ovarian, in the assay with TK-10 renal, in the assay on M14 melanoma, with UO-31 renal and in the assay on SK-MEL-2 melanoma was more than 100 µM in each case. The TGI in the assay with MDA-N and in the assay on RPMI-8226 leukemia was more than 100 µM each time.

For `COc1ccc(S(=O)Cc2cc(OC)ccc2OC)cc1` (centres undefined), the TGI with LOX IMVI melanoma, in the assay with UACC-62 melanoma, in the assay on HCT-15 colon, in the assay on PC-3 prostate, in the assay with NCI-H23 lung and with HT29 colon was more than 100 µM each time. Besides, the TGI with SN12C renal, in the assay on OVCAR-8 ovarian, in the assay on TK-10 renal, in the assay with M14 melanoma, in the assay with UO-31 renal and with BT-549 breast was more than 100 µM in each case. The compound further showed a TGI with MDA-N of more than 100 µM.

As for `O=[N+]([O-])c1cccc2nc3ccccc3c(NCCNCCO)c12`, the TGI was 0.0184 µM and 0.112 µM with LOX IMVI melanoma; 0.0315 µM and 0.0174 µM in the assay with UACC-62 melanoma; more than 100 µM in the assay with HCT-15 colon; 0.017 µM in the assay on PC-3 prostate; 0.00448 µM in the assay with NCI-H23 lung; 0.111 µM in the assay with HS 578T breast. In addition, the TGI in the assay with SN12C renal was 0.173 µM; in the assay with OVCAR-8 ovarian it was 0.158 µM and 0.0328 µM; with M14 melanoma it was 0.0236 µM and 0.0101 µM; with UO-31 renal, 0.392 µM and 0.192 µM; in the assay with SK-MEL-2 melanoma, 0.00744 µM; with BT-549 breast, 0.0273 µM and 0.0259 µM. In addition, in the assay with RPMI-8226 leukemia, the TGI was 0.0602 µM and 0.0646 µM. Also, in the assay on UO-31 renal, the GI50 was 0.0448 µM.

On to `CCOC(=O)/C=C/[C@H](O[Si](c1ccccc1)(c1ccccc1)c1ccccc1)C(C)(C)C`, for which the TGI with LOX IMVI melanoma, with UACC-62 melanoma, in the assay with HCT-15 colon, in the assay on PC-3 prostate, in the assay on NCI-H23 lung and with HS 578T breast was more than 31.6 µM each time. Moreover, the TGI was more than 31.6 µM in the assay on HT29 colon; more than 31.6 µM with SN12C renal; more than 31.6 µM in the assay on OVCAR-8 ovarian; more than 31.6 µM in the assay on TK-10 renal; more than 100 µM in the assay with M14 melanoma; more than 31.6 µM in the assay on UO-31 renal. The TGI is more than 31.6 µM in the assay with SK-MEL-2 melanoma, more than 31.6 µM in the assay with MDA-N and more than 29 µM in the assay with RPMI-8226 leukemia.

As for `COC(=O)c1cc(C)ccc1CC(Cc1ccccc1C)C(=O)OC` (centres undefined), the TGI was 28.1 µM with LOX IMVI melanoma; more than 100 µM in the assay with UACC-62 melanoma; more than 100 µM in the assay on HCT-15 colon; more than 100 µM in the assay on PC-3 prostate; more than 100 µM in the assay on NCI-H23 lung; more than 100 µM in the assay with HS 578T breast. Also, the TGI was 94.2 µM with HT29 colon; more than 100 µM in the assay on SN12C renal; more than 100 µM in the assay on OVCAR-8 ovarian; more than 100 µM in the assay on TK-10 renal; more than 100 µM in the assay with M14 melanoma; more than 100 µM in the assay on UO-31 renal. In addition, the TGI in the assay on BT-549 breast and with MDA-N was more than 100 µM in each case.

Turning to `O=C(NCCCCNCCCNC(=O)C(F)(F)F)C(F)(F)F`, the TGI in the assay on UACC-62 melanoma, with HCT-15 colon, in the assay with PC-3 prostate, in the assay with NCI-H23 lung, in the assay on HS 578T breast and in the assay with HT29 colon was more than 100 µM throughout. For the same compound, the TGI with SN12C renal, in the assay with OVCAR-8 ovarian, in the assay on TK-10 renal, in the assay with M14 melanoma, with UO-31 renal and in the assay with SK-MEL-2 melanoma was more than 100 µM each time. Besides, the TGI in the assay with BT-549 breast, in the assay with RPMI-8226 leukemia and with SR leukemia was more than 100 µM throughout.

Turning to `CC1CSc2nc3[nH]c(=S)[nH]c3c(=O)n2C1` (centres undefined), the TGI in the assay with LOX IMVI melanoma, in the assay with UACC-62 melanoma, in the assay with HCT-15 colon, in the assay with NCI-H23 lung, in the assay on SN12C renal and in the assay with OVCAR-8 ovarian was more than 100 µM throughout. For the same compound, the TGI in the assay on TK-10 renal, with UO-31 renal, in the assay with BT-549 breast and in the assay on RPMI-8226 leukemia was more than 100 µM each time.

As for `COc1ccc(/C=N/n2c(C)n[nH]c2=O)cc1`, the TGI with UACC-62 melanoma, with HCT-15 colon, in the assay with PC-3 prostate, with NCI-H23 lung, with HT29 colon and in the assay with SN12C renal was more than 100 µM in each case. Further, the TGI in the assay with OVCAR-8 ovarian, in the assay on M14 melanoma, in the assay with UO-31 renal, with SK-MEL-2 melanoma, with BT-549 breast and in the assay on MDA-N was more than 100 µM in each case. The compound further returned a TGI with RPMI-8226 leukemia of more than 100 µM.

As to `O=C1NC2(O)c3ccccc3C(=O)C2(O)N1c1ccccc1` (centres undefined), the TGI in the assay on LOX IMVI melanoma, in the assay with UACC-62 melanoma, in the assay on HCT-15 colon, with NCI-H23 lung, in the assay on HT29 colon and in the assay with OVCAR-8 ovarian was more than 100 µM each time. Besides, the TGI with TK-10 renal, in the assay on M14 melanoma, in the assay with UO-31 renal, in the assay with SK-MEL-2 melanoma, in the assay on RPMI-8226 leukemia and in the assay on SR leukemia was more than 100 µM in each case.

For `O=C(/C=C/c1ccc(Cl)c(Cl)c1)CCN1CCN(CCC(=O)/C=C/c2ccc(Cl)c(Cl)c2)CC1`, the TGI in the assay with LOX IMVI melanoma worked out at 33.7 µM; in the assay on UACC-62 melanoma it was 45.3 µM; with HCT-15 colon, 34.1 µM; in the assay with PC-3 prostate it was 57.1 µM; in the assay on HT29 colon, 46.8 µM; in the assay with SN12C renal, 80.9 µM. In addition, the TGI in the assay on OVCAR-8 ovarian was more than 100 µM; with TK-10 renal it was 36.6 µM; with M14 melanoma, 35.6 µM; with UO-31 renal, 32.6 µM; with SK-MEL-2 melanoma, 92.6 µM; with BT-549 breast it was 59.8 µM. Besides, the TGI with RPMI-8226 leukemia and in the assay with SR leukemia was more than 100 µM in each case.

The values above are taken from PubChem BioAssay (NCI).
